Measurements reported in patent US4937249A, “Imide derivatives and their pharmaceutical use” (Sumitomo Pharmaceuticals Company, Limited, priority 1987, dated 1990).
Like-named read-outs stand apart in the source and are kept apart here.

What was measured:
[1] = tested on: climbing behavior induced by apomorphine in mice; assay: Anti-climbing activity (climbing behavior induced by apomorphine in mice); type: in vivo, mice (dd strain male); conditions: Mus musculus, po
Excerpt: This activity was examined through the anticlimbing behavior test, i.e. the test for suppressing the climbing behavior induced by apomorphine in mice. A designed amount of the test compound was orally administered to several groups of dd strain male mice (bodyweight, 20 to 25 g; one group, 5 mice), and each of the animals was charged in an individual column cage of 12 cm in diameter and 14 cm in height having metal poles (each pole, 2 mm in diameter) vertically installed and arranged along the periphery with intervals of 1 cm. […]
0 All the paws were on the floor
1 Only forepaws seized the pole of the cage
2 All the paws seized the pole of the cage;
climbing behavior observed discontinu-
3 Continuous climbing behavior observed

dopamine D2 receptor = biological target: T1, dopamine D2 receptor (Bos taurus, UniProt P20288); assay: Dopamine D2 receptor binding assay (displacement of [3H] spiperone, membrane fractions of corpus striatum); set-up: species or system bovine
T1 construct: from tissue; host or cells: bovine corpus striatum, washed membrane fractions
T1 sequence (P20288 whole entry): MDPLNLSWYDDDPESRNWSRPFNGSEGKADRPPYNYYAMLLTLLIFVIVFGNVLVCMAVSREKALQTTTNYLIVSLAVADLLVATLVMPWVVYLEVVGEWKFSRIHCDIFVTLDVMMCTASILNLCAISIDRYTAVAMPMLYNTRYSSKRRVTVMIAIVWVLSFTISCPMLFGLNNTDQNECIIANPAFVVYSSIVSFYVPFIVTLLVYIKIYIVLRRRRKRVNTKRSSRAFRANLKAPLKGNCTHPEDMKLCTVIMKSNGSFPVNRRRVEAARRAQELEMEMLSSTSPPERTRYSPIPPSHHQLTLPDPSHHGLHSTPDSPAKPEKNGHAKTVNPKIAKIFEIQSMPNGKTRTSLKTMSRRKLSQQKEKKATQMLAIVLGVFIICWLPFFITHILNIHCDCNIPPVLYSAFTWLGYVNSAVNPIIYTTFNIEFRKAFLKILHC
Experimental: Fresh corpus striatum taken out from bovine brain was homogenized in a 20-fold dilution of Tris-HCl buffer solution (pH, 7.4; 0.05 M) and centrifuged (50,000×g) for 10 minutes to give the membrane fractions, which were washed with the same volume of the buffer solution twice to give the membrane fractions for assay.
Number of bindings specific to the D2 receptor in [^3 H] spiperone in a designed concentration of the test compound was measured according to the following equation and the IC50 and Ki was determined thereon on the basis of a hill plot: [formula] l: concentration of [^3 H] spiperone on assay KD : dissociation constant of [^3 H] spiperone

5-HT2 receptors = assay: Anti-head twitching activity (anti-5-HT2 activity; 5-methoxytryptamine-induced head twitches in mice); type: in vivo, mice (dd strain male); conditions: Mus musculus, po, nialamide 30 mg/kg i.p., 5-MT 2.5 mg/kg i.v., head twitches for 3 minutes
Experimental: It is known that the efficacy on the negative symptom can be evaluated through anti-5-hydroxytryptamine 2 (5-HT2) activity. […] Based on the above knowledges, test for measurement of head twitches in mice was carried out for evaluation of the anti-5-HT2 activity.

[2] = 1 hr, apomorphine 1.0 mg/kg s.c., mice, read-out: ED50 (p.o.) 1 hr

Row | SMILES | ED50 ([1]; 1 h, read-out: ED50 (p.o.) 1 hr) | ED50 ([1]; 4 h, read-out: ED50 (p.o.) 4 hrs) | Ki (dopamine D2 receptor; [3H] spiperone 1 nM, 37° C., 30 minutes, bovine corpus striatum membranes, read-out: Ki) | ED50 [1, 2] | ED50 ([1]; 4 hrs, apomorphine 1.0 mg/kg s.c., mice, read-out: ED50 (p.o.) 4 hrs) | ED50 (5-HT2 receptors) | Ki (dopamine D2 receptor)
1 | CN(C)CCCN1c2ccccc2Sc2ccc(Cl)cc21 [Chlorpromazine, 2-chloro-10-(3-dimethylaminopropyl)-phenothiazine] | 1.8 mg/kg | 8.8 mg/kg |  |  |  |  | 
2 | O=C1C2CCCCC2C(=O)N1CCCCN1CCC(c2noc3cc(F)ccc23)CC1 (stereo not drawn) [Example 1, N-[4-{4-(6-Fluoro-1,2-benzisoxazol-3-yl)piperidinyl}butyl]cyclohexane-1,2-dicarboximide] |  |  | 0.37 nM | 0.92 mg/kg | 2.3 mg/kg | 0.3 to 1 mg/kg | 
3 | O=C1CC2(CCCC2)CC(=O)N1CCCCN1CCN(c2nsc3ccccc23)CC1 [Tiaspirone, 8-[4-(3-benzisothiazolyl)-1-piperazinylbutyl]-8-azaspiro[4,5]decane-7,9-dione] |  |  |  | 9.4 mg/kg |  | 4 mg/kg | 0.5 nM
